Results as given in patent US20240059693A1, “FUSED BICYCLIC PYRAZOLE DERIVATIVES AND METHODS OF USE THEREOF FOR THE TREATMENT OF HERPESVIRUSES” (Merck Sharp & Dohme LLC, priority 2020, published 2024).
pEC50, pIC50: −log10 of the molar value. Where two headings read alike, the source gives them in different places.

Experiments:
[1] = tested on: HSV2; test: Viral qPCR assay, HSV2 in MRC5 cells; assay type: cell-based, Herpes Simplex Virus type 2; settings: Human alphaherpesvirus 2, MRC5, 72 h, read-out: HSV2 MRC5 Cell (EC50)
In short: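 Vero or MRC5 cells infected in suspension with HSV2 and added to a 10-point 3-fold compound dilution, then ~72 h at 37 °C. Lysates assayed by TaqMan qPCR against a plasmid standard curve; copies normalized to controls (with PPIA in one format) and EC50 from 4-parameter fit.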

[2] = tested on: HSV2; test: Viral qPCR assay, HSV2 in Vero cells; assay type: cell-based, Herpes Simplex Virus type 2; settings: read-out: HSV2 VERO Cell (EC50)
Procedure: (§1) MRCS cells, Vero cells, and MeWo cells were obtained from ATCC and were maintained at 37° C./5% CO2/90% relative humidity in Minimal Essential Medium with 10% fetal bovine serum, […] L-glutamine, 100 units/ml penicillin and 100 ug/ml streptomycin. Assay plates were prepared by dispensing compounds dissolved in DMSO into wells of 384 well collagen-coated plates using an ECHO acoustic dispenser. Each compound was tested in a 10-point, serial 3-fold dilution. Controls included uninfected cells and infected cells treated only with DMSO. Assays were initiated by mixing selected cells, in suspension, with virus, and dispensing 50 μl/well infected cells to pre-plated compounds. Plates were incubated at 37° C./5% CO2/90% relative humidity for ˜72 hrs to permit genomic replication, and infected cells were lysed by the addition of an equal volume of lysis buffer (10 mM Tris-HCl, pH8, 50 mM KCl, 2 mM MgCl2, 0.45% NP-40, 0.45% Tween-20, and 100 μg/ml proteinase K). An aliquot of the lysate was transferred to a 384-well PCR plate and incubated at 56° C. for 1 hour and then at 95° C. for 10 min. Levels of a viral gene and of the cellular control, PPIA (Thermo Fisher Assay ID=Hs04194521_s1), were measured in separate 10 μL qPCR assays using TaqMan® Gene Expression Master Mix (Applied Biosystems), and an 7900HT Fast Real-Time PCR System with 384-Well Block Module. 7-point, serial 10-fold dilutions of a plasmid standard were run on each plate to generate a standard curve, and genome copies numbers were calculated by plotting experimental Ct onto linear regression of the standard curve. Viral genome copy numbers were normalized by cellular control copy number, and compound effects were normalized to the window defined by the controls. Calculated % effects were fit using a 4-parameter algorithm, and EC50 was reported.
as §1, with “gene” for “gene and of the cellular control, PPIA (Thermo Fisher Assay ID=Hs04194521_s1),”, “in” for “in separate”, “Compound effects on viral” for “Viral”, “number” for “numbers were normalized by cellular control copy number, and compound effects”

[3] = tested on: HSV-1 Strain F; test: Viral qPCR assay, HSV-1 in MRC5 cells; assay type: cell-based, Herpes Simplex Virus type 1; settings: Human alphaherpesvirus 1, MRC5, 72 h, read-out: HSV1 MRC5 Cell (EC50)
In short: (§2)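 MRC5, MeWo (VZV Street strain, 0.04-0.1 pfu/cell) or Vero/MRC5 (HSV-1 Strain F, 0.0005-0.004 pfu/cell) cells infected in suspension and added to 10-point 3-fold compound dilutions; ~72 h at 37 °C. Lysates qPCR-quantified for viral genome copies against plasmid standard curve, in one format normalized to cellular PPIA; 4-parameter fit gives EC50.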

[4] = tested on: HCMV Strain AD169; test: Viral qPCR assay, HCMV in MRC-5 cells; assay type: cell-based, Human cytomegalovirus; settings: read-out: CMV MRC5 Cell (EC50)
In short: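 MRC-5 cells infected in suspension with HCMV AD169 (0.05-0.1 pfu/cell) and added to 10-point 3-fold compound dilutions, in growth media or media with 50% FBS. After ~72 h at 37 °C, lysates analysed by TaqMan qPCR against a plasmid standard curve, viral copies normalised to PPIA or not. EC50 from 4-parameter fit.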

[5] = target: T1, varicella zoster virus DNA polymerase (Varicella-zoster virus, UniProt P09252); test: VZV polymerase assay (AlphaLISA); assay type: biochemical; settings: VZV DNA polymerase 0.4 nM, 60 minutes at 37° C.
T1 construct: made in house; host or cells: SF21 insect cells (baculovirus vector)
Procedure: Human cytomegalovirus and varicella zoster virus DNA polymerases were expressed via baculovirus vector in SF21 cells and purified. Heterodimeric nucleic acid substrate used in the herpesvirus polymerase reactions was generated by annealing a 59-mer template to a 17-mer digoxigenin-labeled primer. Polymerase (HCMV final concentration of 0.2 nM; VZV final concentration of 0.4 nM) was combined with an inhibitor compound or DMSO in assay buffer (10 mM HEPES, pH 7.5, 25 mM KCl, 25 mM NaCl, 5 mM MgCl2, 5% glycerol, 0.67 mg/ml bovine serum albuminutes, and 1 mM tris(2-carboxyethyl)phosphine), and this mixture was pre-incubated for 30 minutes at room temperature in 384-well microtiter plates. The polymerization reaction was initiated by the addition of template/primer substrate (final concentration: 1.6 nM), and dNTPs (final concentration: 24 nM dCTP, 24 nMdGTP, 16 nM dATP, 16 nM dTTP, and 0.8 nM biotin-dUTP). After 60 minutes incubation at 37° C., reactions were terminated with quench buffer (25 mM HEPES pH 7.5, 100 mM NaCl, 0.25% Tween-20, 12 mM EDTA, and 1 mg/ml bovine serum albumin). Incorporation of biotinylated UTP was detected with 2.5-ug/ml anti-DIG AlphaLISA acceptor beads and 5-10 ug/ml streptavidin AlphaLISA donor beads (Perkin Elmer). Compound effects were normalized to the window defined by the controls (DMSO only and pre-quenched wells) and were fit using a 4-parameter algorithm to report an IC50.

[6] = target: T2, Human cytomegalovirus DNA polymerase (Human cytomegalovirus, UniProt P08546); test: HCMV polymerase assay (AlphaLISA); assay type: biochemical; settings: HCMV DNA polymerase 0.2 nM, 60 minutes at 37° C.; read-out: CMV (IC50)
T2 construct: made in house; host or cells: SF21 insect cells (baculovirus vector)
In short: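 Baculovirus/SF21-expressed polymerase (HCMV 0.2 nM; VZV 0.4 nM) pre-incubated 30 min at room temperature with compound in HEPES pH 7.5 buffer, then 60 min at 37 °C with 1.6 nM DIG-primer/template, sub-nM to 24 nM dNTPs and 0.8 nM biotin-dUTP. AlphaLISA detection; IC50 from 4-parameter fit.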

[7] = tested on: HSV-1 Strain F; test: Viral qPCR assay, HSV-1 in Vero cells; assay type: cell-based, Herpes Simplex Virus type 1; settings: read-out: HSV1 VERO Cell (EC50)
Procedure: as §1
as §1, with “gene” for “gene and of the cellular control, PPIA (Thermo Fisher Assay ID=Hs04194521_s1),”, “in” for “in separate”, “Compound effects on viral” for “Viral”, “number” for “numbers were normalized by cellular control copy number, and compound effects”
VZV: Strain Street was maintained as an infected cell stock in MRC-5 cells. It was assayed in MeWo or MRCS cells and was used at 0.04-0.1 pfu/cell. The assays were performed in growth medium. Primer-probe set was Thermo Fisher Assay ID=AIPAEXQ. HSV-1: Strain F Street was assayed in Vero or MRCS cells and was used at 0.0005-0.004 pfu/cell in growth medium. Primer-probe set was Thermo Fisher Assay ID=AIBJZIB

[8] = tested on: VZV; test: Viral qPCR assay, VZV in MRC5 cells; assay type: cell-based, varicella zoster virus; settings: Human alphaherpesvirus 3, MRC5, 72 h, read-out: VZV MRC5 Cell (IC50)
In short: as §2

[9] = Human alphaherpesvirus 2, Vero, 72 h
[10] = Human betaherpesvirus 5, AD169, MRC5, 72 h
[11] = Human alphaherpesvirus 1, Vero, 72 h

T2 sequence (P08546 whole entry): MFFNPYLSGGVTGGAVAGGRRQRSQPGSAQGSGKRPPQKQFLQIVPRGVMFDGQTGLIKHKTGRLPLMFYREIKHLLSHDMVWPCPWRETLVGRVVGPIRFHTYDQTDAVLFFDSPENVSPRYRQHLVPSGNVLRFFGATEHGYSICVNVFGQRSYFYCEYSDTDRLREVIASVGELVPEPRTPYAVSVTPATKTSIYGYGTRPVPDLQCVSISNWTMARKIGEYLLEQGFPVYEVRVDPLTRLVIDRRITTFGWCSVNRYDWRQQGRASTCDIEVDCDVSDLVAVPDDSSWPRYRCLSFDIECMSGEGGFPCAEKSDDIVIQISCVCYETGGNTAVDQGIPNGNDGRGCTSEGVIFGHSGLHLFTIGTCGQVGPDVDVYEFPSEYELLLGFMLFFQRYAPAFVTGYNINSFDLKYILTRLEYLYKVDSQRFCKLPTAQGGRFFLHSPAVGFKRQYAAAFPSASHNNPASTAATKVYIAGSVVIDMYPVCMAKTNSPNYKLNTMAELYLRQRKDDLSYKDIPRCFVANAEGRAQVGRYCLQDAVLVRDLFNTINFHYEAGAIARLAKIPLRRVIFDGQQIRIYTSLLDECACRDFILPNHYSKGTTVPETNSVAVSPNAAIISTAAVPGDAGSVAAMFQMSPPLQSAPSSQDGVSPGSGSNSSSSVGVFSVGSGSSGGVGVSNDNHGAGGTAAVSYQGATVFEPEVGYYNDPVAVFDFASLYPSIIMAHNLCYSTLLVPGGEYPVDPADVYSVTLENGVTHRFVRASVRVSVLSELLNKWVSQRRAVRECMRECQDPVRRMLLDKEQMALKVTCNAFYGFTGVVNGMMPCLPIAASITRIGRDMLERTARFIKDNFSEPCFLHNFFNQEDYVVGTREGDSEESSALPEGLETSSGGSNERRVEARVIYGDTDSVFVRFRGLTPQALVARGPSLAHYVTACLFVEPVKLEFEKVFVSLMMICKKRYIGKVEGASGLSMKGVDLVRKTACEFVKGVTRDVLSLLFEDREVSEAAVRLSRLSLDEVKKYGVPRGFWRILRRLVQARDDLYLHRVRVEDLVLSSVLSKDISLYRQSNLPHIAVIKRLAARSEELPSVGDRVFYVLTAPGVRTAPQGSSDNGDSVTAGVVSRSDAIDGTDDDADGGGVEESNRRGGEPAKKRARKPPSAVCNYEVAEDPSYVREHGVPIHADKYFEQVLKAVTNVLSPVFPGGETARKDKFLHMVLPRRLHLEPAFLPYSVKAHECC
T1 sequence (P09252 whole entry): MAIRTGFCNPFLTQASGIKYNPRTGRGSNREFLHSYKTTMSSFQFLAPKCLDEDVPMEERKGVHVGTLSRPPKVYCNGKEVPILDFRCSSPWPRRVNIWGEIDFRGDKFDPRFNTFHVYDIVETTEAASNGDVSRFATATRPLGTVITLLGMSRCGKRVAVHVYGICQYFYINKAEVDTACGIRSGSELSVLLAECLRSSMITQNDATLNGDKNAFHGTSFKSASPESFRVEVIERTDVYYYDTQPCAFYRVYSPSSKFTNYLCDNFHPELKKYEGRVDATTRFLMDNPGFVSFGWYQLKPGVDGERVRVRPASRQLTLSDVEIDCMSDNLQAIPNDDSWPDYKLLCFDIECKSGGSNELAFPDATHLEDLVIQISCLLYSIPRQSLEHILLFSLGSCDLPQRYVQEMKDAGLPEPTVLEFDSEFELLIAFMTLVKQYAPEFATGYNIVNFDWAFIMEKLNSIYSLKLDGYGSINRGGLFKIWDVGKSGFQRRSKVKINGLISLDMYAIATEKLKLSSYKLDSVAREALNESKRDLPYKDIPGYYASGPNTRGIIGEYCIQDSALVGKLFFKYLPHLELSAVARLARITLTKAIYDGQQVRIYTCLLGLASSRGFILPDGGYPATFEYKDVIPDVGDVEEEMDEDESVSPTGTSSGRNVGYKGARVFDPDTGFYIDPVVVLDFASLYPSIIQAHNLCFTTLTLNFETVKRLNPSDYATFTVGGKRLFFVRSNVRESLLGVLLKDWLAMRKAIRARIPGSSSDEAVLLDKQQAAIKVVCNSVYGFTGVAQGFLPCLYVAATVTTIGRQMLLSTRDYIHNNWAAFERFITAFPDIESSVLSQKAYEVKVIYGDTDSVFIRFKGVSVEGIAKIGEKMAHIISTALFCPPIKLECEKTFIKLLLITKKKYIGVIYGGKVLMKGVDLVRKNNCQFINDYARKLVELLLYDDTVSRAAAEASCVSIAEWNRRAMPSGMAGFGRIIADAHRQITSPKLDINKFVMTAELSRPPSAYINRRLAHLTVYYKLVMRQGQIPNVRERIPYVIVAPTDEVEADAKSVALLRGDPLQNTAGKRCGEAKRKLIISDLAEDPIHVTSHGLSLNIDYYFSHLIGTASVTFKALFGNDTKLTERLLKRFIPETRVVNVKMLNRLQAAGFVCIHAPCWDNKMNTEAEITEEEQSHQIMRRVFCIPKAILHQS

pEC50 [2, 9] | pIC50 [5] | pIC50 [6] | pEC50 [7, 11] | pEC50 ([2]; ~72 hrs) | pEC50 ([7]; ~72 hrs) | SMILES | pEC50 [1] | pEC50 [3] | pEC50 [4, 10] | pIC50 [8] | pEC50 ([4]; MRC5 cells, ~72 hrs)
5.45 | 7.31 | 7.15 | 5.86 | – | – | [2H]C([2H])([2H])n1nc(C(=O)NCc2ccc(Cl)cc2)c2c1CN(C[C@H]1CCC(=O)N1)C2 [Compound 59] | 5.50 | 5.15 | 6.15 | 5.28 | –
5.03 | 7.89 | 7.67 | 5.14 | – | – | O=C1CC[C@H](CC2Cc3c(C(=O)NCc4ccc(Cl)cc4)nn(CCN4CC(F)C4)c3C2)N1 (some centres unmarked) [Compound 132] | – | – | 5.53 | – | –
– | 5.82 | 5.34 | – | 4.04 | 4.13 | CC1c2c(c(C(=O)NCc3ccc(Cl)cc3)nn2C)CN1C[C@H]1CCC(=O)N1 (single isomer, unassigned) [Compound 107] | – | – | – | – | 4.00
4.51 | 7.63 | 6.96 | 4.69 | – | – | O=C1CC[C@H](CN2Cc3c(C(=O)NCc4ccc(Cl)cc4)nn(CC4(CF)COC4)c3C2)N1 [Compound 41] | – | – | 5.20 | – | –
– | 7.58 | 7.20 | – | 6.15 | 6.36 | Cn1nc(C(=O)NCc2ccc(Cl)cc2)c2c1CC(O)(CC1CCC(=O)N1)C2 (single isomer, unassigned) [Compound 140] | – | – | – | – | 5.58
– | 7.44 | 7.52 | – | 5.80 | 5.85 | CC(C1CC(F)C(=O)N1)N1Cc2c(C(=O)NCc3ccc(Cl)cc3)nn(C)c2C1 (centres unmarked) [Compound 76] | – | – | – | – | 5.44
5.15 | 7.93 | 7.77 | 5.14 | – | – | O=C1CCC(CC2Cc3c(C(=O)NCc4ccc(Cl)cc4)nn(CCN4CC(F)(F)C4)c3C2)N1 (centres unmarked) [Compound 131] | – | – | 5.80 | – | –
5.60 | 7.78 | 6.92 | 5.45 | – | – | O=C1CC[C@H](CC2Cc3c(C(=O)NCc4ccc(Cl)cc4)nn(C4CN(CC5CC5)C4)c3C2)N1 (single isomer, unassigned) [Compound 136] | – | – | 6.01 | – | –
6.24 | 7.51 | 7.26 | 5.73 | – | – | CC(C)n1nc(C(=O)NCc2ccc(Cl)cc2)c2c1CN(C[C@H]1CCC(=O)N1)C2 [Compound 35] | – | – | 5.57 | – | –
4.42 | 6.72 | 6.46 | 4.51 | – | – | Cn1nc(C(=O)NCc2ccc(Cl)cc2F)c2c1CN(C[C@H]1CCC(=O)N1)C2 [Compound 61] | – | – | 5.70 | – | –
– | 8.35 | 8.35 | – | 5.39 | 5.42 | Cn1nc(C(=O)NCc2ccc(Cl)cc2)c2c1CC(CC1CCC(=O)N1)C2 (single isomer, unassigned) [Compound 130] | – | – | – | – | 5.92
4.25 | 7.30 | 6.76 | 4.58 | – | – | CN1CC(n2nc(C(=O)NCc3ccc(Cl)cc3)c3c2CC(C[C@H]2CCC(=O)N2)C3)C1 (some centres unmarked) [Compound 137] | – | – | 5.11 | – | –
– | 7.52 | 6.96 | – | 5.81 | 5.98 | CCC1c2c(c(C(=O)NCc3ccc(Cl)cc3)nn2C)CN1CC1CCC(=O)N1 (single isomer, unassigned) [Compound 106] | – | – | – | – | 5.93
– | 7.43 | 7.74 | – | 5.63 | 5.77 | CC(C1CC(F)(F)C(=O)N1)N1Cc2c(C(=O)NCc3ccc(Cl)cc3)nn(C)c2C1 (centres unmarked) [Compound 86] | – | – | – | – | 6.21
4.46 | 7.04 | 7.05 | 4.63 | – | – | CCC1(Cn2nc(C(=O)NCc3ccc(Cl)cc3)c3c2CN(C[C@H]2CCC(=O)N2)C3)COC1 [Compound 40] | – | – | 5.28 | – | –
– | 6.80 | 6.28 | – | 5.71 | 5.92 | C[C@@H]1c2c(C(=O)NCc3ccc(Cl)cc3)nn(C)c2CN1C[C@H]1CCC(=O)N1 [Compound 126] | – | – | – | – | 5.21
